Data as given in patent US4232007A, “Oral antilipemic agents” (Taiho Pharmaceutical Company Ltd., priority 1975, dated 1980).

Tests used:
lipids in blood [1] = settings: known drugs, background; cited from earlier work
plasma = experiment: Recalcification test; format: biochemical, rat; settings: 58 sec. at 0 μg
Method: A 0.5 ml quantity of 0.1 M sodium citrate is added to 4.5 ml of blood of rat to obtain plasma. […] Thereafter 0.1 ml of 0.025 M CaCl2 saline solution is added to coagulate the blood sample.

anticoagulant activity = settings: cited from earlier work
Rat = experiment: Acute toxicity test; format: in vivo; settings: for LD50: 72 hours after administration
lipids in blood [2] = experiment: Reduction of lipids in blood of rats given surfactant Triton WR-1339, oral administration; format: in vivo, rat; settings: rats given Triton WR-1339 200 mg/kg i.v., compound 50 mg/kg oral; for Free cholesterol: normal rat 25.7 ± 3.7, rat given surfactant 114.2 ± 28.8; for β-Lipoprotein: normal rat 44.3 ± 1.3, rat given surfactant 141.7 ± 28.8; for Triglyceride: normal rat 44.7 ± 3.5, rat given surfactant 780.1 ± 354.5; for Total cholesterol: normal rat 89.9 ± 10.4, rat given surfactant 235.3 ± 41.7; for Total lipid: normal rat 220 ± 12, rat given surfactant 1033 ± 330
Method: A 100 g quantity of the methyl ester of polyglutamic acid (average molecular weight: 100,000) is dissolved in dichloroethane to a concentration of 10 wt.%. To the solution is added a mixture of 70 ml of 2 N sodium hydroxide solution, 140 ml of methanol and 140 ml of isopropanol,and the resulting mixture is stirred at room temperature for about 8 hours to effect demethylation. The product is then passed through a molecular sieve (Sephadex G-200) for the classification of molecular weight to separate a portion ranging from 80,000 to 100,000 in molecular weight (average molecular weight: 90,000). The separated portion is concentrated under reduced pressure and divided into two portions of equivalent weight. To one of the portions is added methanol and the precipitate formed is separated by filtration and dried to obtain the sodium salt of polyglutamic acid. To the other portion is added concentrated hydrochloric acid until the pH thereof reaches 4, then the solution is cooled with ice, whereby a precipitate is formed. The precipitate is separated by filtration, washed with diluted hydrochloric acid, thereafter with methanol and dried to obtain polyglutamic acid. Each powder (200 mg) of polyglutamic acid and sodium salt thereof thus obtained is mixed with 290 mg of milk sugar, 500 mg of corn starch and 10 mg of hydroxypropyl cellulose and the mixtures obtained are granulated respectively. The granules are suspended in water. Two kinds of the suspensions are orally administered to 7 rats in a dose of 50 mg/kg, respectively, to determine the reduction of lipids in blood.
The separated portion is concentrated under reduced pressure, methanol is added to the concentrate and the resulting precipitate is filtered off and dried to obtain the sodium salt of the copolymer of glutamic acid and aspartic acid. With the powder (200 mg) thus obtained are mixed 290 mg of milk sugar, 500 mg of corn starch and 10 mg of hydroxypropyl cellulose. The mixture is granulated and the granules are suspended in an isotonic sodium chloride solution.

[3] = amount 100 μg, ditto mark = No coagulation

Substance | reducing lipids in blood (lipids in blood [1]) | Coagulation time (plasma; amount 0.1 μg) | Coagulation time (plasma; amount 0.3 μg) | Coagulation time (plasma; amount 0.5 μg) | Coagulation time (plasma; amount 1 μg) | Coagulation time (plasma; amount 10 μg) | Coagulation time (plasma; [3]) | anticoagulant activity as a side effect (anticoagulant activity) | LD50 (Rat; intravenous) | LD50 (Rat; oral) | Free cholesterol (lipids in blood [2]) | β-Lipoprotein (lipids in blood [2]) | Triglyceride (lipids in blood [2]) | Total cholesterol (lipids in blood [2]) | Total lipid (lipids in blood [2]) | Coagulation time (plasma; amount 500 μg, ditto mark = No coagulation) | Coagulation time (plasma; amount 1000 μg, ditto mark = No coagulation) | Coagulation time (plasma; amount 2000 μg, ditto mark = No coagulation) | toxicity compared with heparin (Rat; Table 2)
dextran sulfate | effective in reducing lipids in blood | 57 s | 62 s | 61 s | 117 s | 172 s | No coagulation | very high anticoagulant activity | – | – | – | – | – | – | – | – | – | – | –
heparin | effective in reducing lipids in blood | 62 s | 145 s | 168 s | 285 s | No coagulation | – | very high anticoagulant activity | 730 mg/kg | 1950 mg/kg | – | – | – | – | – | – | – | – | –
polyglutamic acid | – | 55 s | 58 s | 56 s | 62 s | 58 s | 62 s | – | 2050 mg/kg | 6000 mg/kg | 38.8 ± 11.7 mg/dl of plasma | 61.9 ± 29.0 mg/dl of plasma | 103.3 ± 67.2 mg/dl of plasma | 118.1 ± 35.3 mg/dl of plasma | 373 ± 132 mg/dl of plasma | 100 s | 151 s | 250 s | much lower toxicity than heparin
sodium salt of polyglutamic acid | – | – | – | – | – | – | – | – | – | – | 40.0 ± 11.4 mg/dl of plasma | 63.4 ± 16.9 mg/dl of plasma | 92.0 ± 42.8 mg/dl of plasma | 121.8 ± 18.9 mg/dl of plasma | 393 ± 66 mg/dl of plasma | – | – | – | –
